SMILES strings stand for the structures. Converted amounts (≈) assume the structure as drawn. Like-named read-outs stand apart in the source and are kept apart here. Where only a bound is given, the exact number is not on record here.

One data set relates to P. aeruginosa. As to the kind of experiment: Biofilm growth assay (spreading biofilm on semi-solid agar). The format is cell-based. Also noted: P. aeruginosa (n=10): unit not given here. The note with it: for IC85: Pseudomonas aeruginosa.
Another data set has as its system E. coli. Described as above. The class given is cell-based. Also noted: E. coli (n=10): unit: ug/mL. The note with it: for IC85: Escherichia coli. In outline:
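Spreading (swarming) biofilm on semi-solid agar: E. coli on LB with 0.6% agar and 0.5% glucose; P. aeruginosa on M8 agar with 0.2% glucose, 100 µM CaCl2, 1 mM MgSO4, 0.5% Casamino acids. Compound in medium; 5 µL overnight culture spotted centrally, 37°C overnight. Value: concentration (µg/ml) giving ≥85% reduction in spread area versus negative control.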

A further data set concerns Burkholderia cepacia. As to the kind of experiment: Biofilm growth assay, multiple isolates. The note with it: Table 6; inhibitory concentration in the biofilm growth assay; n = number of isolates tested. The class given is cell-based. The method, then:
(§1) The biofilm growth assay was carried out to measure swarming or biofilm spreading on semi-solid agar media in round plates (for example, 100 × 15 mm), also referred to as Petri dishes. For E. coli, the plates contained LB medium with 0.6% agar and 0.5% glucose. P. aeruginosa plates were made with M8 agar supplemented with 0.2% glucose, 100 µM CaCl2, 1 mM MgSO4, and 0.5% Casamino acids. The agar plates of this assay consisted of 0.4% to 0.7% agar (Bacto or Noble agar), although other media may also be used as described in the literature and known to those skilled in the art. Test compounds at the desired concentration were added to the cooled, autoclaved media. Portions of the media were then poured into the plates (20 mL/plate), and the plates allowed to dry at room temperature for approximately 3 to 4 hours. Alternatively, however, plates may be dried in a laminar flow hood for approximately fifteen to twenty minutes. Overnight cultures were grown in a 37°C shaker in LB (E. coli) or TSB (P. aeruginosa). Plates were inoculated by placing 5 µL of the appropriate overnight culture in the centers of the plates. The plates then were incubated overnight at 37°C. The area of the zone of spreading bacteria was then measured and replicates are averaged. Percent inhibition was calculated as 100 × (area without compound - area with compound)/(area without compound). An active compound was considered that which reduces the area of the spreading biofilm compared to negative controls by greater than or equal to 85%. The values shown in Table 1 are the concentrations of compounds (µg/ml) tested in the biofilm growth assay that reduce the area of the spreading biofilm compared to negative controls by greater than or equal to 85% unless noted differently in Table 1. A > ("greater than" symbol) as used in Table 1 is well understood to those skilled in the art as an indication that the listed concentration was not effective at this concentration.
(§2) Table 6, below, lists the inhibitory concentrations of select compounds and antibiotics in the biofilm growth assay against various gram-negative bacterial biofilms. "N" means the number of isolates of bacteria tested. The biofilm growth assay procedure detailed in Example I, above, was followed. Burkholderia cepacia used media consisting of M9 salts, 100 µM CaCl2, 1 mM MgS04, and 0.7% citrate in 0.4% Noble agar. Salmonella spp. used media consisting of Nutrient Broth with 0.5% glucose in 0.5% Noble agar.

The subject of the next data set is Salmonella spp. As to the kind of experiment: Biofilm growth assay, multiple isolates. The format is cell-based. The note with it: Table 6; inhibitory concentration in the biofilm growth assay; n = number of isolates tested. The protocol:
as §1, §2

Data set [1] in a line: Bioavailability in mice (serum level after oral or IP administration). The class given is in vivo. The note with it: orally or via IP injection at approximately 20 mg/kg to 50 mg/kg; 30 minutes or 1 hour after administration. The protocol:
The bioavailabilities of certain compounds were examined in mice. Administration of the compounds was performed orally and by intraperitoneal (IP) injection using a vehicle as known to those skilled in the art. Many vehicles can be used to examine bioavailability. Prior to administration, each vehicle was optimized based on compound solubility according to the formulation research conducted by Uckun et al. (Arznelmittel-Forschung (Drug Research) 2007; 57(4):218-226). […] The concentration of PEG400 is modulated depending upon solubility of the compounds and the amount of aqueous phase added (0.02 M citrate and 0.9% NaCl).

A further data set deals with Pseudomonas syringae. As to the kind of experiment: Biofilm growth assay, plant pathogens. The class given is cell-based. The note with it: 0.5% Noble agar, 30°C, approximately 24 to 48 hours.
For a further data set, the system named is Xanthomonas campestris. As to the kind of experiment: Biofilm growth assay, plant pathogens. The class given is cell-based. The note with it: 0.5% Noble agar, 30°C, approximately 24 to 48 hours.
Data set [2] concerns Pectobacterium atrosepticum. As to the kind of experiment: Biofilm growth assay, plant pathogens. The class given is cell-based. The note with it: 0.5% Noble agar, 30°C, approximately 24 to 48 hours.
For a further data set, the system named is P. aeruginosa biofilm. As to the kind of experiment: Biofilm growth assay with antibiotic disks (synergy). The class given is cell-based. The note with it: 0.125 µg/ml in the agar with colistin 10 µg disks. The method, then:
INHIBITION OF THE GROWTH OF PREFORMED BIOFILMS. The Biofilm Growth Assay as described in Example VII was performed in round plates with the compounds of the invention in agar on half of the plate and antibiotic disks placed onto the agar containing the compounds of the invention.
The Biofilm Growth Assay was performed as described in Example VIII. 2 to 4 antibiotic disks were placed onto the agar containing a compound of the invention in a line parallel to the line that separates the two agars in one round plate. Appropriate negative and positive control plates were performed as known to those skilled in the art.

A further data set can be described thus: Evaluation of salts. The format is physicochemical. The method, then:
Evaluation of Compound 62 (Table 4) salt formation was performed. […] As stated herein, the invention also includes compounds and their salts. Evaluation of Compound 64 (Table 4) salt formation was performed. HCl (mono and bis), p-TSA (bis), BSA (bis), MSA (bis), H2SO4 (mono), and H3PO4 (mono) provided salts with crystallinity. […] As stated herein, the invention also includes compounds and their salts.

The mark [3] stands for this setting: Table 2, concentration that reduces the area of the spreading biofilm by >= 85%.
The mark [4] stands for this setting: Table 6, inhibitory concentration in the biofilm growth assay, n = number of isolates tested.
The mark [5] stands for this setting: Table 4, concentration that reduces the area of the spreading biofilm by >= 85%, read-out: P. aeruginosa.
Setting [6] is: Table 4, concentration that reduces the area of the spreading biofilm by >= 85%, read-out: E. coli.

In the case of `CC1(C)CC[C@]2(C(=O)O)CC[C@]3(C)C(=CCC4[C@@]5(C)Cc6c(n[nH]c6N)C(C)(C)C5CC[C@]43C)C2C1` (stereo in doubt) [Compound 1, (4aS,6aS,6bR,13aR)-12-Amino-2,2,6a,6b,9,9,13a-heptamethyl-2,3,4,4a,5,6,6a,6b,7,8,8a,9,11,13,13a,13b,14,15b-octadecahydro-1H-chryseno[1,2-f]indazole-4a-carboxylic acid], the “growth of the spreading P. aeruginosa biofilm (Figure 1)” value with P. aeruginosa (0.5 µg/ml in the agar, overnight incubation at 37°C) is recorded as “prevented the growth of the spreading P. aeruginosa biofilm”. In the data set on P. aeruginosa (Figure 2 legend), this molecule showed an optimal working concentration of 0.5 µg/mL. The IC85 with P. aeruginosa (Table 1, concentration that reduces the area of the spreading biofilm vs negative controls by >= 85%, > means not effective at this concentration, read-out: P. aeruginosa) was found to be 0.5 µg/mL (≈ 1.01 µM); with E. coli (Table 1, concentration that reduces the area of the spreading biofilm vs negative controls by >= 85%, > means not effective at this concentration, read-out: E. coli), 1 µg/mL (≈ 2.03 µM). Further, the “P. aeruginosa” value in the data set on P. aeruginosa (setting [3]) is 0.5 µg/mL. In addition, the “P. aeruginosa (n=10)” value in the data set on P. aeruginosa (setting [4]) is 1. In addition, in the data set on E. coli (setting [3]), the “E. coli” value was determined as 1 µg/mL. The “E. coli (n=10)” value in the data set on E. coli (setting [4]) was 1. In the data set on Burkholderia cepacia, this molecule yielded an inhibitory concentration of 0.25. Further, in the data set with Salmonella spp., the “inhibitory concentration in biofilm growth assay” value came out at 1. Besides, in [1], the “concentration in the serum of mice” value was > 5000 ng/mL. For the same molecule, the “concentration found to inhibit the spreading biofilms” value worked out at 0.03 µg/mL in the data set on Pseudomonas syringae, 0.5 µg/mL in the data set on Xanthomonas campestris and 0.06 µg/mL in data set [2]. The “combination with colistin at preventing the growth of P. aeruginosa biofilms (Figure 2)” value with P. aeruginosa biofilm was “synergistic”.
On to `CC1(C)CC[C@]2(C(=O)O)CC[C@]3(C)C(=C(c4cccnc4)CC4[C@@]5(C)Cc6c(n[nH]c6N)C(C)(C)[C@@H]5CC[C@]43C)[C@@H]2C1` (stereo partly drawn) [Compound 12, (4aS,6aS,6bR,8aR,13aR,15bS)-12-Amino-2,2,6a,6b,9,9,13a-heptamethyl-15-(pyridin-3-yl)-2,3,4,4a,5,6,6a,6b,7,8,8a,9,11,13,13a,13b,14,15b-octadecahydro-1H-chryseno[1,2-f]indazole-4a-carboxylic acid], for which the IC85 in the data set on P. aeruginosa (Table 2, concentration that reduces the area of the spreading biofilm by >= 85%, read-out: P. aeruginosa) stood at 0.5 µg/mL (≈ 0.876 µM); in the data set on E. coli (Table 2, concentration that reduces the area of the spreading biofilm by >= 85%, read-out: E. coli) it was 1 µg/mL (≈ 1.75 µM). Further, in data set [1], the “concentration in the serum of mice” value is > 5000 ng/mL.
Regarding `CC1(C)CC[C@]2(C(N)=O)CC[C@]3(C)C(=CCC4[C@@]5(C)Cc6c(n[nH]c6N)C(C)(C)C5CC[C@]43C)C2C1` (stereo partly drawn) [Compound 62, (4aS,6aS,6bR,13aR)-12-Amino-2,2,6a,6b,9,9,13a-heptamethyl-2,3,4,4a,5,6,6a,6b,7,8,8a,9,11,13,13a,13b,14,15b-octadecahydro-1H-chryseno[1,2-f]indazole-4a-carboxamide], the IC85 in the data set with P. aeruginosa (setting [5]) and in the data set on E. coli (setting [6]) was 1 µg/mL (≈ 2.03 µM) in each case. Moreover, the “physical properties compared to freebase” value in the data set “Evaluation of salts” (p-toluenesulfonic acid (mono) and H3PO4 (bis) salts) was “most desirable physical properties”.
For the molecule `CN(C)C[C@]12CCC(C)(C)CC1C1=CCC3[C@@]4(C)Cc5c(n[nH]c5N)C(C)(C)C4CC[C@@]3(C)[C@]1(C)CC2` (stereo partly drawn) [Compound 64, (4aS,6aS,6bR,13aR)-4a-((Dimethylamino)methyl)-2,2,6a,6b,9,9,13a-heptamethyl-2,3,4,4a,5,6,6a,6b,7,8,8a,9,11,13,13a,13b,14,15b-octadecahydro-1H-chryseno[1,2-f]indazol-12-amine], the IC85 with P. aeruginosa (setting [5]) came out at 0.5 µg/mL (≈ 0.987 µM); in the data set on E. coli (setting [6]), 1 µg/mL (≈ 1.97 µM). The “concentration in the serum of mice” value in data set [1] was > 5000 ng/mL. For the same molecule, the “aqueous solubility compared to freebase” value in the data set “Evaluation of salts” (Bis-MSA and mono-H3PO4 salts) is listed as “increased aqueous solubility”.
As to `CC1(C)CC[C@]2(c3cc(O)[nH]n3)CC[C@]3(C)C(=CCC4[C@@]5(C)Cc6c(n[nH]c6N)C(C)(C)C5CC[C@]43C)C2C1` (stereo partly drawn) [Compound 68, 3-((4aS,6aS,6bR,13aR)-12-Amino-2,2,6a,6b,9,9,13a-heptamethyl-2,3,4,4a,5,6,6a,6b,7,8,8a,9,11,13,13a,13b,14,15b-octadecahydro-1H-chryseno[1,2-f]indazol-4a-yl)-1H-pyrazol-5-ol], the IC85 with P. aeruginosa (read-out: P. aeruginosa (µg/ml)) and with E. coli (read-out: E. coli (µg/ml)) was 0.5 µg/mL (≈ 0.94 µM) in each case. The “concentration in the serum of mice” value in [1] is > 5000 ng/mL.

The record behind these values is patent publication EP2712863B1, “Novel inhibitors of bacterial biofilms and related methods” (Sequoia Sciences, Inc., priority 2012, dated 2014).
